Measurements: PubChem BioAssay AID248 (DTP/NCI, 2004)
Several values for one entry are separate records, joined by “and”; a condition that tells them apart may be missing. Equal values may be shown once. Inconclusive results and toxic doses are left out. No stated cut-off is given here; in the data, active means T/C of 150% or more; inactive means T/C below 125%.

Test system: L1210 leukemia ip in BDF1 mice, survival T/C
Assay: NCI In Vivo Anticancer Drug Screen. Data for tumor model L1210 Leukemia (intraperitoneal) in B6D2F1 (BDF1) mice
Conditions: endpoint: mean survival time, higher = longer survival
In short: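 Survival endpoint. Drug-treated group vs vehicle group, expressed as T divided by C. Tumor passaged by transplantation.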

[1] = dose: 100.0 mg/kg/injection, schedule: Q01DX001 (ip), vehicle: other
[2] = dose: 200.0 mg/kg/injection, schedule: Q01DX001 (ip), vehicle: other
[3] = dose: 400.0 mg/kg/injection, schedule: Q01DX001 (ip), vehicle: other
[4] = dose: 100.0 mg/kg/injection, schedule: Q01DX001 (ip), vehicle: Klucel (hydroxypropylcellulose) (HPC)
[5] = dose: 100.0 mg/kg/injection, schedule: Q01DX001 (ip), vehicle: saline with Tween-80
[6] = dose: 200.0 mg/kg/injection, schedule: Q01DX001 (ip), vehicle: saline with Tween-80
[7] = dose: 400.0 mg/kg/injection, schedule: Q01DX001 (ip), vehicle: saline with Tween-80

Measured: T/C

Cc1ccc(N=Nc2cc(C(C)C)c(O)cc2C)cc1
inactive: [1] 97 % of control | [2] 97 % of control | [3] 95 % of control

CC1CC(C)(C)CC2(C1)OCC(CCl)O2 (stereo unspecified)
inactive: dose: 100.0 mg/kg/injection, schedule: Q04DX003 (ip), vehicle: saline sonified 100 % of control | dose: 200.0 mg/kg/injection, schedule: Q04DX003 (ip), vehicle: saline sonified 98 % of control | dose: 400.0 mg/kg/injection, schedule: Q04DX003 (ip), vehicle: saline sonified 96 % of control

c1ccc([Se]c2ccccn2)nc1
inactive: dose: 12.5 mg/kg/injection, schedule: Q01DX009 (ip), vehicle: Klucel (hydroxypropylcellulose) (HPC) 101 % of control | dose: 12.5 mg/kg/injection, schedule: Q04DX003 (ip), vehicle: Klucel (hydroxypropylcellulose) (HPC) 105 % of control | dose: 25.0 mg/kg/injection, schedule: Q01DX001 (ip), vehicle: Klucel (hydroxypropylcellulose) (HPC) 102 % of control | dose: 25.0 mg/kg/injection, schedule: Q01DX009 (ip), vehicle: Klucel (hydroxypropylcellulose) (HPC) 98 % of control | dose: 25.0 mg/kg/injection, schedule: Q04DX003 (ip), vehicle: Klucel (hydroxypropylcellulose) (HPC) 103 % of control | dose: 50.0 mg/kg/injection, schedule: Q01DX001 (ip), vehicle: Klucel (hydroxypropylcellulose) (HPC) 110 % of control | dose: 50.0 mg/kg/injection, schedule: Q04DX003 (ip), vehicle: Klucel (hydroxypropylcellulose) (HPC) 107 % of control and 110 % of control | [4] 105 % of control

O=S(=O)(NNS(=O)(=O)c1ccccc1)c1ccccc1
inactive: [5] 101 % of control | [6] 94 % of control | [7] 88 % of control

O=c1c2ccccc2[nH]c2ncccc12
inactive: dose: 100.0 mg/kg/injection, schedule: Q04DX002 (ip), vehicle: Klucel (hydroxypropylcellulose) (HPC) 96 % of control | dose: 200.0 mg/kg/injection, schedule: Q04DX002 (ip), vehicle: Klucel (hydroxypropylcellulose) (HPC) 92 % of control

O=Nc1c(N=O)c(N=O)c(N=O)c(N=O)c1N=O
inactive: dose: 1.0 mg/kg/injection, schedule: Q01DX015 (ip), vehicle: carboxymethylcellulose (CMC) 101 % of control | dose: 2.0 mg/kg/injection, schedule: Q01DX015 (ip), vehicle: carboxymethylcellulose (CMC) 92 % of control | dose: 4.0 mg/kg/injection, schedule: Q01DX015 (ip), vehicle: carboxymethylcellulose (CMC) 102 % of control | dose: 8.0 mg/kg/injection, schedule: Q01DX015 (ip), vehicle: carboxymethylcellulose (CMC) 91 % of control | dose: 25.0 mg/kg/injection, schedule: Q04DX003 (ip), vehicle: saline 101 % of control | dose: 50.0 mg/kg/injection, schedule: Q04DX003 (ip), vehicle: saline 90 % of control | dose: 100.0 mg/kg/injection, schedule: Q01DX001 (ip), vehicle: saline 107 % of control | dose: 100.0 mg/kg/injection, schedule: Q04DX003 (ip), vehicle: saline 90 % of control | dose: 200.0 mg/kg/injection, schedule: Q01DX001 (ip), vehicle: saline 100 % of control | dose: 400.0 mg/kg/injection, schedule: Q01DX001 (ip), vehicle: saline 100 % of control

COc1cccc(/C=N\NC(=O)CCCC(=O)N/N=C/c2cccc(OC)c2OC)c1OC
inactive: dose: 50.0 mg/kg/injection, schedule: Q01DX001 (ip), vehicle: other 91 % of control | [1] 91 % of control | [2] 91 % of control | [3] 91 % of control

CC(C)(C)c1ccc(C(c2ccc(C(C)(C)C)cc2)C(Cl)Cl)cc1
inactive: dose: 100.0 mg/kg/injection, schedule: Q04DX003 (ip), vehicle: Klucel (hydroxypropylcellulose) (HPC) 113 % of control | dose: 200.0 mg/kg/injection, schedule: Q04DX003 (ip), vehicle: Klucel (hydroxypropylcellulose) (HPC) 96 % of control | dose: 400.0 mg/kg/injection, schedule: Q04DX003 (ip), vehicle: Klucel (hydroxypropylcellulose) (HPC) 97 % of control

c1ccc(-c2ccn(C3CCCCC3)c2-c2ccccc2)cc1
inactive: [5] 87 % of control | [6] 91 % of control | [7] 92 % of control

CCCCCCCCCCCCCCCCP(=O)(OCCOCCCCCC)OCCOCCCCCC
inactive: dose: 12.5 mg/kg/injection, schedule: Q01DX009 (ip), vehicle: acetone 93 % of control | dose: 12.5 mg/kg/injection, schedule: Q04DX003 (ip), vehicle: acetone 95 % of control | dose: 25.0 mg/kg/injection, schedule: Q01DX009 (ip), vehicle: acetone 100 % of control | dose: 25.0 mg/kg/injection, schedule: Q04DX003 (ip), vehicle: acetone 109 % of control | dose: 50.0 mg/kg/injection, schedule: Q01DX009 (ip), vehicle: acetone 93 % of control | dose: 50.0 mg/kg/injection, schedule: Q04DX003 (ip), vehicle: acetone 106 % of control

CCOC(=O)c1c(NC(=O)CCl)ssc1=S
inactive: dose: 50.0 mg/kg/injection, schedule: Q01DX009 (ip), vehicle: saline with Tween-80 103 % of control | dose: 100.0 mg/kg/injection, schedule: Q04DX003 (ip), vehicle: saline with Tween-80 92 % of control | dose: 200.0 mg/kg/injection, schedule: Q04DX003 (ip), vehicle: saline with Tween-80 91 % of control

CC1(C)OC2OC(C3COC(=O)O3)C(O)C2O1 (stereo unspecified)
inactive: [4] 114 % of control | dose: 200.0 mg/kg/injection, schedule: Q01DX001 (ip), vehicle: Klucel (hydroxypropylcellulose) (HPC) 101 % of control | dose: 400.0 mg/kg/injection, schedule: Q01DX001 (ip), vehicle: Klucel (hydroxypropylcellulose) (HPC) 96 % of control
